Laboratory results: the NIST ThermoML archive (doi:10.1021/je200707b)

Columns and labels:
[1] = xn = mol fraction of the nth substance listed; settings: 101.3 kPa, Liquid; for viscosity: Falling or rolling sphere viscometry; for mass density: Vibrating tube method
[2] = refractive index (Na D-line) (dimensionless); xn = mol fraction of the nth substance listed; settings: 298.15 K, 101.3 kPa, Liquid, Standard Abbe refractometry

CC(=O)O.CCCCN [butylammonium acetate] + CO
[1]
Settings | mass density, 293.15 K [kg/m3] | mass density, 298.15 K [kg/m3] | mass density, 303.15 K [kg/m3] | mass density, 308.15 K [kg/m3] | mass density, 313.15 K [kg/m3] | viscosity, 293.15 K [mPa·s] | viscosity, 298.15 K [mPa·s] | viscosity, 303.15 K [mPa·s] | viscosity, 308.15 K [mPa·s] | viscosity, 313.15 K [mPa·s]
x1 = 0.0302 | 814.76 | 810.3 | 805.81 | 801.29 | 796.74 | 0.883 | 0.82 | 0.763 | 0.712 | 0.666
x1 = 0.0597 | 832.65 | 828.3 | 823.98 | 819.63 | 815.28 | 1.237 | 1.141 | 1.053 | 0.975 | 0.905
x1 = 0.1011 | 852.44 | 848.33 | 844.2 | 840.05 | 835.89 | 1.933 | 1.759 | 1.607 | 1.474 | 1.357
x1 = 0.1992 | 884.85 | 881.05 | 877.23 | 873.38 | 869.54 | 4.825 | 4.283 | 3.828 | 3.437 | 3.099
x1 = 0.301 | 906.27 | 902.66 | 899.04 | 895.45 | 891.77 | 11.1 | 9.608 | 8.354 | 7.294 | 6.415
x1 = 0.4023 | 920.99 | 917.52 | 914.03 | 910.53 | 907.04 | 23.22 | 19.57 | 16.66 | 14.34 | 12.54
x1 = 0.4995 | 931.42 | 928.03 | 924.64 | 921.23 | 917.83 | 44.76 | 36.68 | 30.45 | 25.59 | 21.65
x1 = 0.6524 | 943.29 | 940 | 936.69 | 933.39 | 930.08 | 115.48 | 92.51 | 69.01 | 53.46 | 47.61
x1 = 0.7993 | 951.52 | 948.31 | 945.07 | 941.83 | 938.59 | 256.45 | 195.97 | 151.07 | 118.32 | 94.24
x1 = 0.8988 | 955.88 | 952.69 | 949.49 | 946.3 | 943.09 | 418.49 | 312.52 | 242.56 | 183.85 | 142.67

[2]
Settings | refractive index
x1 = 0.0302 | 1.3413
x1 = 0.0597 | 1.3526
x1 = 0.1011 | 1.3665
x1 = 0.1992 | 1.3878
x1 = 0.301 | 1.403
x1 = 0.4023 | 1.4144
x1 = 0.4995 | 1.4212
x1 = 0.6524 | 1.4316
x1 = 0.7993 | 1.4365
x1 = 0.8988 | 1.4398
